Source: patent US9284333B2, “Fused pyrroledicarboxamides and their use as pharmaceuticals” (SANOFI, priority 2012, dated 2016)

target: Human TASK-1 channels (Homo sapiens (Human), UniProt O14649); assay: Determination of the activity on the TASK-1 channel in Xenopus oocytes (two-microelectrode voltage clamp); format: cell-based; details: compound concentration 5 μM
Method in brief: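 Current during 500 ms pulses to 40 mV from a −90 mV hold was recorded in oocytes expressing human TASK-1 for two days after cRNA injection. Compounds were added cumulatively to the ND96 bath (pH 7.4, room temperature). IC50 came from dose-response fitting of inhibition relative to pre-compound current.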

Sequence of Human TASK-1 channels (O14649 whole entry): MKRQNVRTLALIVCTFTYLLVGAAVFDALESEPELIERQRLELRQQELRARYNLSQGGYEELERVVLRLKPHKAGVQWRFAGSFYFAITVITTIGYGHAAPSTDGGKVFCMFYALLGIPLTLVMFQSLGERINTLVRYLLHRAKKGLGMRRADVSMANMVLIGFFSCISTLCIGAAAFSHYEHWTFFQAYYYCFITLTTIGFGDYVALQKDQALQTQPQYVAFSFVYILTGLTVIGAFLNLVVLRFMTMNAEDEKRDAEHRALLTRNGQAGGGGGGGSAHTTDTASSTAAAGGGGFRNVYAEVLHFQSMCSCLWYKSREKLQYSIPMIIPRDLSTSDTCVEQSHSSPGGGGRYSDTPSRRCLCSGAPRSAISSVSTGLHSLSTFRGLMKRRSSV

Compound | inhibition at 5 µM [%] | TASK-1 inhibition [%] at 5 μM [%]
CC(C)[C@@H](NC(=O)c1cc(C(=O)NCc2ncco2)c2n1CCOC2)c1ccc(F)cc1 [16ll, 3,4-Dihydro-1H-pyrrolo[2,1-c][1,4]oxazine-6,8-dicarboxylic acid 6-{[(R)-1-(4-fluoro-phenyl)-2-methyl-propyl]-amide} 8-[(oxazol-2-ylmethyl)-amide]] | 86 | –
CC[C@H](NC(=O)c1cc(C(=O)N2CCC[C@@H]2C)n2c1COCC2)c1c(F)cc(C(F)(F)F)cc1F [16cm, 6-((S)-2-Methyl-pyrrolidine-1-carbonyl)-3,4-dihydro-1H-pyrrolo[2,1-c][1,4]oxazine-8-carboxylic acid [(S)-1-(2,6-difluoro-4-trifluoromethyl-phenyl)-propyl]-amide] | 85 | –
3,4-Dihydro-1H-pyrrolo[2,1-c][1,4]oxazine-6,8-dicarboxylic acid 6-[(1H-indol-6-ylmethyl)-amide] 8-[((R)-1-phenyl-propyl)-amide] [16je] | – | 91
CC[C@@H](NC(=O)c1cc(C(=O)N2CCC[C@@H]2C)n2c1CCCC2)c1ccc2c(c1)COC2=O [16lz, 3-((S)-2-Methyl-pyrrolidine-1-carbonyl)-5,6,7,8-tetrahydro-indolizine-1-carboxylic acid [(R)-1-(1-oxo-1,3-dihydro-isobenzofuran-5-yl)-propyl]-amide] | 76 | –

same assay, conditions: human TASK-1 expressed in Xenopus oocytes, room temperature; read-out: IC50 value for TASK-1 inhibition

Compound | IC50 [nM]
CC[C@@H](NC(=O)c1cc(C(=O)N[C@H](C)c2ccc(F)cc2)n2c1COCC2)c1ccccc1 [16gl, 3,4-Dihydro-1H-pyrrolo[2,1-c][1,4]oxazine-6,8-dicarboxylic acid 6-{[(R)-1-(4-fluoro-phenyl)-ethyl]-amide} 8-[((R)-1-phenyl-propyl)-amide]] | 42
CC[C@@H](NC(=O)c1cc(C(=O)N[C@H](C)C(C)(C)C)n2c1COCC2)c1ccccc1 [16hr, 3,4-Dihydro-1H-pyrrolo[2,1-c][1,4]oxazine-6,8-dicarboxylic acid 8-[((R)-1-phenyl-propyl)-amide] 6-[((R)-1,2,2-trimethyl-propyl)-amide]] | 190
CC[C@@H](NC(=O)c1cc(C(=O)NCc2ccc(C(=O)OC)cc2)n2c1COCC2)c1ccccc1 [16ir, 4-({[8-((R)-1-Phenyl-propylcarbamoyl)-3,4-dihydro-1H-pyrrolo[2,1-c][1,4]oxazine-6-carbonyl]-amino}-methyl)-benzoic acid methyl ester] | 350
CC[C@@H](NC(=O)c1cc(C(=O)N2CCC[C@@H]2C)n2c1COCC2)c1cnc(C(F)(F)F)c(F)c1 [16ck, 6-((S)-2-Methyl-pyrrolidine-1-carbonyl)-3,4-dihydro-1H-pyrrolo[2,1-c][1,4]oxazine-8-carboxylic acid [(R)-1-(5-fluoro-6-trifluoromethyl-pyridin-3-yl)-propyl]-amide] | 830
CC[C@@H](NC(=O)c1cc(C(=O)N2CCC[C@@H]2C)n2c1COCC2)c1cnc(OC)c(Cl)c1 [16b, 6-((S)-2-Methyl-pyrrolidine-1-carbonyl)-3,4-dihydro-1H-pyrrolo[2,1-c][1,4]oxazine-8-carboxylic acid [(R)-1-(5-chloro-6-methoxy-pyridin-3-yl)-propyl]-amide] | 61
CC[C@@H](NC(=O)c1cc(C(=O)N[C@H](CC)c2ccc(C(F)(F)F)nc2)n2c1COCC2)c1ccccc1 [16id, 3,4-Dihydro-1H-pyrrolo[2,1-c][1,4]oxazine-6,8-dicarboxylic acid 8-[((R)-1-phenyl-propyl)-amide] 6-{[(R)-1-(6-trifluoromethyl-pyridin-3-yl)-propyl]-amide}] | 530
CC[C@@H](NC(=O)c1cc(C(=O)N2CCC[C@@H]2C)n2c1COCC2)c1ccc(Cl)s1 [16rb, 6-((S)-2-Methyl-pyrrolidine-1-carbonyl)-3,4-dihydro-1H-pyrrolo[2,1-c][1,4]oxazine-8-carboxylic acid [(R)-1-(5-chloro-thiophen-2-yl)-propyl]-amide] | 230
CC[C@@H](NC(=O)c1cc(C(=O)N[C@H](C)c2ccc(F)cc2)n2c1COCC2)c1ccc(C(F)(F)F)cc1 [16eb, 3,4-Dihydro-1H-pyrrolo[2,1-c][1,4]oxazine-6,8-dicarboxylic acid 6-{[(R)-1-(4-fluoro-phenyl)-ethyl]-amide} 8-{[(R)-1-(4-trifluoromethyl-phenyl)-propyl]-amide}] | 250
CC[C@@H](NC(=O)c1cc(C(=O)N2CCC[C@@H]2C(C)O)n2c1COCC2)c1ccccc1 (stereo partly drawn) [16ey, 6-[(R)-2-(1-Hydroxy-ethyl)-pyrrolidine-1-carbonyl]-3,4-dihydro-1H-pyrrolo[2,1-c][1,4]oxazine-8-carboxylic acid ((R)-1-phenyl-propyl)-amide] | 4700
CC[C@@H](NC(=O)c1cc(C(=O)N[C@H](CC)c2cnc(OC)cn2)n2c1COCC2)c1ccccc1 [16hy, 3,4-Dihydro-1H-pyrrolo[2,1-c][1,4]oxazine-6,8-dicarboxylic acid 6-{[(R)-1-(5-methoxy-pyrazin-2-yl)-propyl]-amide} 8-[((R)-1-phenyl-propyl)-amide]] | 41
CC[C@@H](NC(=O)c1cc(C(=O)N2CCC[C@@H]2C)n2c1COCC2)c1ccncc1Cl [16bw, 6-((S)-2-Methyl-pyrrolidine-1-carbonyl)-3,4-dihydro-1H-pyrrolo[2,1-c][1,4]oxazine-8-carboxylic acid [(R)-1-(3-chloro-pyridin-4-yl)-propyl]-amide] | 1200
CC[C@@H](NC(=O)c1cc(C(=O)N2CCC[C@@H]2C)n2c1COCC2)c1cnc(OC)c(C(F)(F)F)c1 [16cn, 6-((S)-2-Methyl-pyrrolidine-1-carbonyl)-3,4-dihydro-1H-pyrrolo[2,1-c][1,4]oxazine-8-carboxylic acid [(R)-1-(6-methoxy-5-trifluoromethyl-pyridin-3-yl)-propyl]-amide] | 100
CC[C@@H](NC(=O)c1cc(C(=O)N[C@@H](CO)C(C)C)n2c1COCC2)c1ccccc1 [16jj, 3,4-Dihydro-1H-pyrrolo[2,1-c][1,4]oxazine-6,8-dicarboxylic acid 6-[((R)-1-hydroxymethyl-2-methyl-propyl)-amide] 8-[((R)-1-phenyl-propyl)-amide]] | 4400
CC[C@@H](NC(=O)c1cc(C(=O)N[C@H](CC)c2ccccc2)n2c1COCC2)c1ccccc1 [16i, 3,4-Dihydro-1H-pyrrolo[2,1-c][1,4]oxazine-6,8-dicarboxylic acid bis-[((R)-1-phenyl-propyl)-amide]] | 160
CC[C@@H](NC(=O)c1cc(C(=O)NC(C2CC2)C2CC2)n2c1COCC2)c1ccc(C(F)(F)F)nc1 [16pa, 3,4-Dihydro-1H-pyrrolo[2,1-c][1,4]oxazine-6,8-dicarboxylic acid 6-dicyclopropylmethyl-amide 8-{[(R)-1-(6-trifluoromethyl-pyridin-3-yl)-propyl]-amide}] | 1500
CC[C@@H](NC(=O)c1cc(C(=O)N(CCO)CC2CC2)n2c1COCC2)c1ccccc1 [16hk, 3,4-Dihydro-1H-pyrrolo[2,1-c][1,4]oxazine-6,8-dicarboxylic acid 6-[cyclopropylmethyl-(2-hydroxy-ethyl)-amide] 8-[((R)-1-phenyl-propyl)-amide]] | 1400
CC[C@@H](NC(=O)c1cc(C(=O)NC(C)c2ncccn2)c2n1CCOC2)c1ccccc1 (mixture of isomers) [16jz, 3,4-Dihydro-1H-pyrrolo[2,1-c][1,4]oxazine-6,8-dicarboxylic acid 6-[((R)-1-phenyl-propyl)-amide] 8-[(1-pyrimidin-2-yl-ethyl)-amide]] | 300
